According to publication PMC10641831 (Journal of Medicinal Chemistry, 2023):
Several values for one entry are separate records, joined by “and”; a condition that tells them apart may be missing. Identical values can stand only once. Like-named read-outs stand apart in the source and are kept apart here. Numbered stars: 1 amine (or outer) side, 2 acyl side, 3 side chain; on linkers, the order of the positions; unused ones are H or OH. Bridge positions count the residues as written; N and C are the ends. Square brackets hold non-standard residues; d marks the D form. Peptide text beside a SMILES is read from it. AMPB(E) = O=C(c1ccc(/N=N/c2ccc(CN[*:1])cc2)cc1)[*:2]; X1 = O=C([C@H](Cc1ccc(/N=N/c2ccccc2)cc1)N[*:1])[*:2]

Key:
hOTR = target: T1, hOTR (Homo sapiens, UniProt P30559); test: IP-One accumulation assay, agonist function, HEK293 cells expressing hOTR; type: cell-based; conditions: for agonist character at OTR: IP-One assay; for potency difference between the E and Z isomers at OTR: EC50 E vs Z
T1 construct: expressed in transfected cells
T1 sequence (P30559 1-389): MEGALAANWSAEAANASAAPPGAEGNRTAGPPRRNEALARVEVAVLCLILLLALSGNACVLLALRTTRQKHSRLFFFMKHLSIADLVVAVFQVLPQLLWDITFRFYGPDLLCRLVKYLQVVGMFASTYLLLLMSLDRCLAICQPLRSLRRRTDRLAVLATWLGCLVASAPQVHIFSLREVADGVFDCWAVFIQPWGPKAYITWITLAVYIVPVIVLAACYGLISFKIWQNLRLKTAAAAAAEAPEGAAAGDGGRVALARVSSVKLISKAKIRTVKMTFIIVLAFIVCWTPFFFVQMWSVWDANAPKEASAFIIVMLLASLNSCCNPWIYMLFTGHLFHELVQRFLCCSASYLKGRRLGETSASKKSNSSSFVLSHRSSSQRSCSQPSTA

[1] = Thermal half-life of the Z-isomer (UV/vis, 96-well plate); type: physicochemical; conditions: for t1/2 (thermal half-life, Figure S50): 50 µM in HEPES buffer + 0.25% DMSO, pre-irradiated with 340 nm; for t1/2 (thermal half-life Z to E): preirradiation with 340 nm
Description: All photoprobes were investigated regarding their photophysical properties in aqueous buffer (pH 7.5), mimicking the conditions of the biological functional assays. […] Upon irradiation with 340 nm light for 10 s and monitoring via UV/vis spectroscopy, all compounds could be switched to the Z-isomer, reaching the photostationary state (PSS). Compounds 8–17 containing azobenzene could be switched back to the E-isomer by irradiation at 420 nm for 60 s. Compounds 18 and 19 containing arylazopyrazole could be reverted to the E isomer by using 528 nm light. […] The PSS, when switched to the Z-isomer, was consistently good, with a PSS of 81–95%. […] The thermal half-lives of 10 and 12 were also measured at 37 °C, representing the temperature during the biological assays. As expected, the thermal half-lives decreased, however, the ratio of E and Z isomers remained stable during the incubation period of the biological assays (1 h).
Starting materials and commercial reagents were purchased from Acros, Alfa Aesar, Fisher, Fluka, Fluorochem, Merck (Sigma-Aldrich), TCI and VWR and were used without further purification. Solvents were used in p.a. quality or dried according to common procedures if necessary. All reactions with oxygen- or moisture-sensitive reagents were carried out in glassware that was dried before use by heating under vacuum. Dry nitrogen or argon was used for an inert gas atmosphere. All NMR spectra were measured at room temperature (20 °C) using a Bruker Avance 400 (400 MHz for ^1H and 101 MHz for ^13C) or a Bruker Avance 600 (600 MHz for ^1H and 151 MHz for ^13C) NMR spectrometer. All chemical shifts are reported in δ-scale as parts per million [ppm] (multiplicity, coupling constant J, number of protons) relative to the solvent residual peaks. Coupling constants J are given in hertz [Hz]. Abbreviations used for signal multiplicity: ^1H NMR: s = singlet, d = doublet, dd = doublet of doublets, ddd = doublet of doublets of doublets, dt = doublet of triplets, t = triplet, td = triplet of doublets, q = quartet, and m = multiplet. All mass spectra were recorded on an Agilent Q-TOF 6540 UHD, Finnigan MAT SSQ 710 A, Jeol AccuTOF GCX or ThermoQuest Finnigan TSQ 7000 spectrometer. Absorption spectra were recorded on an UV/vis Agilent Cary 50 spectrometer. Thermal half-lives were measured on a 96-well plate in a Thermo Scientific Multiskan Spectrum. Analytical TLC was performed on silica gel-coated alumina plates (MN precoated TLC-sheets ALUGRAM Xtra SIL G/UV254). Visualization was done using UV light (254 or 366 nm) or staining with ninhydrin solution. Column chromatography was performed on a Biotage Isolera One automated flash purification system with a UV/vis detector. Analytical RP-HPLC was carried out on an Agilent 1220 Infinity LC System (column: P/No 00F-4251-B0, Phenomenex Luna 3 μm C18(2) 100 Å, LC column 150 mm × 2.0 mm). Purification by preparative HPLC was conducted on a preparative HPLC Agilent 1260 Infinity LC System [column: P/No 00G-4253-P0-AX, Phenomenex Luna 10 μm C18(2) 100 Å, LC column 250 mm × 21.2 mm]. The eluent systems were used as specified. After the purification process, solvents were removed by lyophilization. Switching experiments were done with a 340 nm LED (SSC VIOSYS CUD4AF1B, 500 mA, 55 mW), 420 nm LED (ILH-XC01-S410-SC211-WIR200, 800 mA, 440 mW), and 528 nm LED (OSRAM Oslon SSL 80 green, 500 mA, 34 mW). Purity of all photoprobes was >95% as determined by analytical RP-HPLC at 220 nm in DMSO.
1.3.4. Thermal Half-lives
Thermal half-lives were measured in a 96-well plate in a Thermo Scientific Multiskan® Spectrum at 25 °C (and at 37 °C for compounds 10 and 12). The solutions (50 µM in HEPES buffer + 0.25% DMSO) were pre-irradiated with 340 nm. The absorption at 335 nm was measured every 3 h. The data was analyzed using Origin 2021.
0,7 1/2 ExpDec1 Fit of Sheet1 B
Modell ExpDec1 0,35 Modell ExpDec1
0,6 Gleichung y = A 1 *e xp (-x/t1 ) + y0 Gleichung y = A 1 *e xp (-x/t1 ) + y0 […]

[2] = Photostationary state by analytical C18-RP-HPLC; type: physicochemical; conditions: for PSS (E → Z): irradiation with 340 nm, HEPES buffer; for PSS (Z → E): irradiation with 420 nm (8–17) or 528 nm (18, 19)
Procedure: All photoprobes were investigated regarding their photophysical properties in aqueous buffer (pH 7.5), mimicking the conditions of the biological functional assays.
1.3.2. Photostationary States
Photostationary states (PSS) were measured on analytical C18-RP-HPLC (flow: 0.3 mL/min, solvent A: H2O (0.05% TFA), solvent B: MeCN). To determine the PSS of the photoswitches, the samples (in 0.1 mM in HEPES buffer + 1% DMSO, pH 7.5) were irradiated first with 340 nm to get the Z-isomer. Afterwards, the sample was irradiated with 420 nm (8-17) or 528 nm (18 and 19), respectively, to get back to the E-isomer. The samples were measured at the isosbestic points.

hV1aR = target: T2, hV1aR (Homo sapiens, UniProt P37288); test: IP-One accumulation assay, agonist function, HEK293 cells expressing hV1aR; type: cell-based; conditions: IP-One, stable HEK293 hV1aR; μM; read-out: V1aR EC50
T2 construct: expressed in transfected cells
T2 sequence (P37288 whole entry): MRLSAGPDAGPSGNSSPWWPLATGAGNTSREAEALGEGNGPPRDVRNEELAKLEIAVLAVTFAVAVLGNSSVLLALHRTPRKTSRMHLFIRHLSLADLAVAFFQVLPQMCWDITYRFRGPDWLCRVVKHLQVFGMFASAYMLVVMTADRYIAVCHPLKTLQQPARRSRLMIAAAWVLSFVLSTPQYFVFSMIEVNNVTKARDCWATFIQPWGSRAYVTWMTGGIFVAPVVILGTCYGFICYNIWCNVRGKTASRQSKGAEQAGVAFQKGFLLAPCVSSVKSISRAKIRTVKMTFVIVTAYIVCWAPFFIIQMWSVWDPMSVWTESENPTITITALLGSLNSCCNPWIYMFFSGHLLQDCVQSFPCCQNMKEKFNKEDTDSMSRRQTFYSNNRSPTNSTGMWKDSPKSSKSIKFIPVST

hV1bR = target: T3, hV1bR (Homo sapiens, UniProt P47901); test: IP-One accumulation assay, agonist function, HEK293 cells expressing hV1bR; type: cell-based
T3 construct: expressed in transfected cells
T3 sequence (P47901 1-424): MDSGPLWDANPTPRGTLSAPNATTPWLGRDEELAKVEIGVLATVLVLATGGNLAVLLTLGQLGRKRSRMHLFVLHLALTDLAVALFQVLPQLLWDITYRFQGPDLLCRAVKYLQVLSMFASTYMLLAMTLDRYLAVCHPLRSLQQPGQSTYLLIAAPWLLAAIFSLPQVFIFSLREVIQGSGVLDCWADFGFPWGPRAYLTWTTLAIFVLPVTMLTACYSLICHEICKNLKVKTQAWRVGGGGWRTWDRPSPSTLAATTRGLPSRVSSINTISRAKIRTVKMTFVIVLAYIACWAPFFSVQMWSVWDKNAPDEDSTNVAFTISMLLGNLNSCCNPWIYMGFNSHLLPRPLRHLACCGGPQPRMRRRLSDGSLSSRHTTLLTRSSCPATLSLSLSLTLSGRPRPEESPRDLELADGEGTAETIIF

[3] = supplementary CSV, read-out: activity E-isomer OTR
[4] = supplementary CSV, read-out: activity Z-isomer OTR

Compound | agonist character at OTR (hOTR) | EC50 (hOTR; [3]) | EC50 (hOTR; [4]) | t1/2 (thermal half-life, Figure S50) ([1]; 25 °C) | t1/2 (thermal half-life Z to E) ([1]; 25 °C, HEPES buffer pH 7.4) | PSS (E → Z) [2] | PSS (Z → E) [2] | potency difference between the E and Z isomers at OTR (hOTR) | further results
CC[C@H](C)[C@@H]1NC(=O)[C@H](Cc2ccc(/N=N/c3ccccc3)cc2)NC(=O)[C@@H](N)CSSC[C@@H](C(=O)N2CCC[C@H]2C(=O)N[C@@H](CC(C)C)C(=O)NCC(N)=O)NC(=O)[C@H](CC(N)=O)NC(=O)[C@H](CCC(N)=O)NC1=O [compound 8, [AzbS^2]-OT] (H-C[X1]IQNCPLG-NH2; disulfide 1-6) | partial agonism | 4500 ± 1010 nM | 3500 ± 1890 nM | 132 h | 132 h | 94% | – | – | decrease in potency compared to OT at OTR (hOTR; EC50 vs OT): > 1400 fold; Emax (hOTR; HEK293, relative to the effect of OT, read-out: OTR Emax ± SEM): 35 to 45%; EC50 (hOTR; IP-One, both isomers, read-out: EC50 at OTR): 3000 to 4000 nM
N=C(N)NCCC[C@H](NC(=O)c1ccc(/N=N/c2ccc(CNC(=O)[C@@H]3CSSC[C@H](N)C(=O)N[C@@H](Cc4ccc(O)cc4)C(=O)N[C@@H](Cc4ccccc4)C(=O)N[C@@H](CCC(N)=O)C(=O)N[C@@H](CC(N)=O)C(=O)N3)cc2)cc1)C(=O)NCC(N)=O [E-14] (H-CYFQNC[AMPB(E)]RG-NH2; disulfide 1-6) | – | – | – | – | – | – | – | – | EC50 (hV1aR): > 10 µM; Emax (hV1bR; HEK293, relative to the effect of VP, read-out: V1bR Emax ± SEM): 48 ± 2%; EC50 (hV1bR; IP-One, stable HEK293 hV1bR, read-out: V1bR EC50 ± SEM): 4970 ± 754 nM; V1bR E/Z ratio EC50 (hV1bR; ratio of EC50 of E- and Z-isomer): 2.1
[AzpC(m)^1,Dap^6]-VP [compound 19] | – | – | – | 1310 h | 1310 h | 93% | 87% | – | –
CC[C@H](C)[C@@H]1NC(=O)[C@H](Cc2ccc(O)cc2)NC(=O)[C@@H](N)CSSC[C@@H](C(=O)NCc2ccc(/N=N/c3ccc(C(=O)NCC(N)=O)cc3)cc2)NC(=O)[C@H](CC(N)=O)NC(=O)[C@H](CCC(N)=O)NC1=O [compound 10, [AzbL^7/8]-OT] (H-CYIQNC[AMPB(E)]G-NH2; disulfide 1-6) | potent agonists | 94.6 ± 19 nM | 30.7 ± 4 nM | 40.8 h | 40.8 h | 86% | 81% | 3.1 fold and 3 fold | t1/2 (thermal half-life, Figure S50) ([1]; 37 °C): 24 h; t1/2 (thermal half-life Z to E) ([1]; 37 °C): 24 h
[AzbC(m,m)^1,Dap^6]-VP [compound 17] | – | – | – | 686 h | 686 h | 93% | 88% | – | –
[AzpC(o)^1,Dap^6]-VP [compound 18] | – | – | – | 158 h | 158 h | 94% | 82% | – | –
CC[C@H](C)[C@@H]1NC(=O)[C@H](Cc2ccc(O)cc2)NC(=O)[C@@H](N)CSSC[C@@H](C(=O)NCc2ccc(/N=N/c3ccc(C(=O)N[C@@H](CC(C)C)C(=O)NCC(N)=O)cc3)cc2)NC(=O)[C@H](CC(N)=O)NC(=O)[C@H](CCC(N)=O)NC1=O [compound 11, [AzbL^7]-OT] (H-CYIQNC[AMPB(E)]LG-NH2; disulfide 1-6) | potent agonists | 263 ± 21 nM | 134 ± 17 nM | 28.8 h | 28.8 h | 87% | 85% | 2 fold | –
CC[C@H](C)[C@@H]1NC(=O)[C@H](Cc2ccc(O)cc2)NC(=O)[C@@H](N)CSSC[C@@H](C(=O)N[C@@H](Cc2ccc(/N=N/c3ccccc3)cc2)C(=O)N[C@@H](CC(C)C)C(=O)NCC(N)=O)NC(=O)[C@H](CC(N)=O)NC(=O)[C@H](CCC(N)=O)NC1=O [compound 9, [AzbS^7]-OT] (H-CYIQNC[X1]LG-NH2; disulfide 1-6) | full agonist | 346 ± 30 nM | 136 ± 6 nM | 72 h | 72 h | 93% | – | 2.5 fold | –
NC(=O)CC[C@@H]1NC(=O)[C@H](Cc2ccccc2)NC(=O)[C@H](Cc2ccc(O)cc2)NC(=O)[C@@H](N)CSSC[C@@H](C(=O)NCc2ccc(/N=N/c3ccc(C(=O)N[C@@H](CCCN=C(N)N)C(=O)NCC(N)=O)cc3)cc2)NC(=O)[C@H](CC(N)=O)NC1=O [compound 14, [AzbL^7]-VP] (H-CYFQNC[AMPB(E)]RG-NH2; disulfide 1-6) | – | – | – | – | – | – | – | – | EC50 (hV1bR; supplementary CSV, read-out: activity Z-isomer V1bR): 2370 ± 607 nM
[AzbC(m,o)^1,Dap^6]-VP [compound 16] | – | – | – | 74.4 h | 74.4 h | 89% | 83% | – | –
